Test results as given in a melting point compilation (Tetko et al.; mined from patent text by program, amines drawn as free bases though some values may be those of a salt).

SMILES	melting point [°C]
CC1CC(=O)NN=C1c1ccc(NC(=O)c2ccco2)cc1 (stereo unspecified)	213 to 216
S=C1Nc2ccccc2Cc2nccn21	182 to 183
COc1cc(C(N)=O)ccc1-c1nc2cc3c(cc2[nH]1)NC(=O)C3(C)C	265 to 270
CCOC(=O)CONC(=S)Nc1cc(Cl)ccc1C	117 to 119
ON=Cc1ccc(Sc2ccccc2)cc1	74 to 76
CC(C)(CO)CNC(=O)c1n[nH]cc1NC(=O)c1ccccn1	217 to 218
CCOC(=O)C(=Cc1cnccc1OC)N=[N+]=[N-]	92 to 95
CN1CCN(C2=Nc3ccccc3N3CCc4cc(Cl)cc2c43)CC1	182 to 183
N#Cc1ccc(C(F)(F)F)cn1	36 to 38
OCCCCOC(c1ccccc1)(c1ccccc1)c1ccccc1	73 to 74
O=Cc1ccc2cccnc2c1	56
O=C(O)c1ccc(COCc2csc3nc(C(=O)NCc4ccc(F)c(C(F)(F)F)c4)[nH]c(=O)c23)cc1	258 to 259
Cc1c(Cl)nc(=O)n(C)c1N	254 to 256
CC(=O)Nc1c(C#N)cnn1-c1c(Cl)cc(C(F)(F)F)c(Cl)c1Cl	177 to 178
COc1ccc2[nH]c([S+]([O-])Cc3ncc(C)c(OC)c3C)nc2n1 (stereo unspecified)	224 to 226
OCc1ccc(Cn2c(CC3CCN(CCNc4ccc(Cl)nn4)CC3)nc3ccccc32)o1	188
Nc1ccccc1C(=O)C=CC(=O)O	103 to 107
Cc1noc(-c2ncn3c2[C@@H]2CCCN2C(=O)c2c(Cl)cccc2-3)n1	230 to 231
CCOC(=O)c1cnc2sc(-c3cccnc3)nn2c1=O	200 to 202
CC(C)(O)Cn1c(CON2C(=O)c3ccccc3C2=O)nc2c(N)nc3ccccc3c21	270 to 272
COC(=O)[C@H](C)N(C(=O)[C@H](CC(C)C)NC(=O)OC(C)(C)C)c1ccc(F)cc1	121 to 122
CS(=O)(=O)N[C@H]1CC[C@H](CCN2CCC(c3cccc4c3CCO4)CC2)CC1	152
CN(C)c1ccc(Cl)cc1[N+](=O)[O-]	54 to 55

SMILES	melting point [°C]
CCCCCCCCCCCCCCCCCCOc1cc(C(=O)O)cc(C(=O)N(CC(=O)O)CC(=O)O)c1	108 to 112
O=C(c1ccc(Cl)cc1)C1CCN(S(=O)(=O)N2CCCC[C@@H]2C(=O)NO)CC1	84.4 to 86.4
CCOC(=O)C(C(=O)OCC)c1ccc([N+](=O)[O-])cn1	91.5 to 93.5
CCC1=NN=C(c2ccc(OC)c(OC)c2)c2cc(OC)c(OC)cc2C1CC (stereo unspecified)	142 to 144
FC(F)(F)c1cc(CO[C@H]2CCCN(Cc3nsc(I)n3)[C@H]2c2ccccc2)cc(C(F)(F)F)c1	98 to 101
CCCOc1ccccc1-c1nc2nnc(OC)nc2c(=O)[nH]1	221 to 222
CC1(n2cc(C(=O)O)c(=O)c3cc(F)c(F)c(F)c32)CC1	292 to 294
CCCn1c(=O)c(C(=O)OCC)c(O)c2ccc(C)nc21	128 to 130
COC(=O)C1(Cl)SC=CC1=O (stereo unspecified)	70 to 71
COc1cccc2c1CCC(C(=O)O)C2C(=O)O (stereo unspecified)	200 to 201
COCCNS(=O)(=O)CC1CC(C)(C)Oc2ccc(OCCO)cc21 (stereo unspecified)	61 to 63
O=C(O)COc1nnc(C(Cl)Cl)s1	114
COC(=O)CC(=O)c1cc2cc(OC)c(OC)cc2s1	129 to 130
CC(C)(C)OC(=O)[C@H](Cc1ccc(O)cc1)NC(=O)C12CC3CC(C(=O)N1Cc1ccccc1)C2C3 (stereo partly specified)	298 to 300
CC(C)CC(C(=O)Nc1cc(Cl)cc(Cl)c1)N1C(=O)C=CC1=O (stereo unspecified)	150
Cc1cccc(NC(=O)NCC(=O)N(CC(=O)OCC(F)(F)F)c2ccccc2)c1	172
CC1(C)Cc2c(c(N3CCCC3)nc3sc4c(NCc5ccncc5)ncnc4c23)CO1	228 to 229
CCc1cc2c(s1)N(C(=O)N(C)C)CCN=C2c1ccccc1	237 to 238
CCOC(=O)c1c(CN2CCCC2=O)nc2sc3c(c2c1-c1ccc2c(c1)OCO2)CCN(C(=O)c1ccccc1)C3	270 to 271
COCC(=O)N(C)c1ccc(NC(=O)[C@H]2C[C@@H](O)CN2C(=O)Nc2ccc(Cl)cc2)cc1	84
Cc1cc(Cl)ccc1C(=O)NN(CCF)CCF	85 to 87
CN1C(=O)CSC1c1cccnc1 (stereo unspecified)	96.5 to 97.5
NC(=O)c1cc(NCc2ccccc2)c([N+](=O)[O-])cc1[N+](=O)[O-]	143 to 146

SMILES	melting point [°C]
Cc1nc(CN2C(=O)C3(COc4cc5c(cc43)OCO5)c3ccccc32)c(C(F)(F)F)o1 (stereo unspecified)	136 to 137
COc1cc([N+](=O)[O-])c([N+](=O)[O-])cc1O	172
CC(=O)Oc1ccc(C=O)cc1Cl	33 to 35
C=Cc1c(C(=O)OC)nc(-c2ccc(Cl)cc2)c(F)c1N	81 to 83
Cc1cc(Oc2ccc(NC(=O)Nc3ccc(N(CCCl)CCCl)cc3)cc2)c2cc3c(cc2n1)OCO3	217 to 218
CC(C)(C(=O)O)n1c(=O)[nH]c2cc(F)c(F)cc2c1=O	242 to 244
CSc1nc(=O)cc(N)n1-c1ccc(Cl)cc1	180 to 182
CN1CCC(C2(O)c3ccccc3Sc3ccc(S(=O)(=O)C(F)(F)F)cc32)CC1 (stereo unspecified)	211 to 216
CCn1c(C)nc(N2CCc3ccccc3CC2)c([N+](=O)[O-])c1=O	145 to 147
COc1cc2c(cc1OC)CC(=O)NC(=O)C2	235
CCOC(=O)C(OC)C(=O)Nc1ccc(Br)cc1C (stereo unspecified)	93 to 95
Cc1cccc(C2=CCN(CCCn3c(=O)[nH]c4c(Cl)cccc4c3=O)CC2)c1	214 to 216
CNc1cc(C(F)(F)F)no1	48.5 to 50
O=CNc1ccccc1N1CCc2cc(Cl)ccc21	126 to 129
Cc1cc2c([C@@H]3C[C@H]3CNC(=O)C3CC3)cccn2n1 (relative stereo)	124 to 128
O=C(O)c1ccc2c(c1)Nc1ccccc1S2	> 235
C#Cc1cc(Cl)cc2c1OC(C(F)(F)F)C(C(=O)O)=C2 (stereo unspecified)	186 to 189
CC1CC2C3CCC4=CC(=O)CCC4=C3C(c3ccc(-c4cccnc4)cc3)CC2(C)C1C(=O)C1CC1 (stereo unspecified)	206
Cn1c(=O)c2c(ncn2CCCN2CCC(NC(=O)c3ccc(N)cc3)CC2)n(C)c1=O	203 to 205
OC1(c2cccs2)CCN(CCCc2nnc3n2CCCCC3)CC1	162 to 163
CCCn1ncc(C#N)c1N	85 to 90
CCOC(=O)N1CCN(C(=CNc2cccc(OC)c2)C(=O)OC)CC1	120 to 122

Second part, the compound after the results:

melting point [°C]	SMILES
175 to 190	CCCCc1oc2ccccc2c1C(=O)NCc1ccc(-c2ccc(OCC(=O)O)c(Br)c2)cc1
97 to 98	CC(C)C(O)(CCc1ccc(OCc2ccccc2)cc1)CC(=O)O (stereo unspecified)
92 to 93	CCC(O)(c1ccccc1)c1cccc(N)c1 (stereo unspecified)
114 to 116	O=C(C=Cc1ccccc1)Oc1ccccc1
166	CC(C)OC(=O)c1cc(-c2ccccc2)c(=O)n2c1-c1sccc1CC2
121 to 123	COc1cc(C(=O)Cl)ccc1NC(=O)c1ccccc1-c1ccccc1
115 to 118	CCOC(=O)/C=C/c1c(CC)cnc2c(NC(=O)c3c(Cl)cccc3Cl)cccc12
190 to 196	COc1ccc2nc3ccc(C(=O)N(C)C)cn3c(=O)c2c1
80 to 81	CCOC(=O)C(Cc1ccc(O)cc1)Oc1ccc(F)cc1 (stereo unspecified)
265 to 270	CCOC(=O)c1cnc2c(C(=O)Nc3cc4cccnc4cc3OC)csc2c1
95 to 96	CCOC(=O)c1cc(Cl)nc(SCc2ccc3ccccc3c2)n1
100 to 102	CONC(=O)c1ccccc1OCc1ccc(Cl)cc1Cl
196 to 199	COC(=O)N(CC(=O)Nc1ccc(S(N)(=O)=O)cc1)c1ccccc1
71	CC(C)(C#N)CCCCOc1cc(-c2ccccc2)cc(-c2ccccc2)n1
175 to 177	COc1ccc(-n2nnc(-c3ccc(F)cc3Cl)c2N)cc1
138 to 139	COC(=O)c1cncc(OCc2ccc(OCc3nc(-c4ccccc4)oc3C)cc2)c1
230	COc1ccc(CSc2ccncc2C(=O)O)cc1

melting point [°C]	SMILES
96 to 98	COC(=O)c1cc2ccc(SCCCc3cc4c(cc3OCc3ccccc3)CC(CCc3ccccc3)O4)cc2nc1OC (stereo unspecified)
216 to 218	Cc1nc[nH]c1CSCCNc1nc(C)c(-c2ccccc2)c(=O)[nH]1
144 to 145	Cc1oc(-c2ccccc2)nc1COc1ccc(COc2ncccc2CC(=O)O)cc1
136 to 137	COC(=O)c1cc(-c2nc(COc3ccc(C=O)cc3OC)c(C)o2)ccc1C
85 to 86	COc1cccc(Oc2cccc(-c3cccc(C(=O)NCCC#N)c3)n2)c1
51 to 53	COc1ccc2ncc(F)cc2c1
126 to 128	COc1cc(C(C)C)c2c(c1)S(=O)(=O)N(COc1cc(-c3ccccc3)nn1C)C2=O
189	CC(C)C(=O)NCc1cccc(-c2nc(=O)c3ccccc3s2)n1
92 to 93	CC1(C=O)CC1(c1cccc(F)c1)c1cccc(F)c1 (stereo unspecified)
97 to 99	BrCCCCCCCOc1nc(-c2ccccc2)c(-c2ccccc2)n1-c1ccccc1
162	COC(=O)C1Cc2c(OC)cccc2N1S(=O)(=O)c1ccc(-c2ccc(F)cc2F)cc1 (stereo unspecified)
83 to 84	COc1cc2c(N3CCN(C(=O)Nc4ccc(Oc5ccccc5)cc4)CC3)ncnc2c(OC)c1OC
178	CCC(NC(=NC#N)Nc1ccc(N)nc1)c1ccccc1 (stereo unspecified)
155 to 156	Cc1oc(-c2ccccc2)nc1COc1ccc(Cn2cc(CCC(=O)O)c(-c3ccccn3)c2)cc1
150 to 152	COc1cc(OC)cc(S(=O)(=O)c2ccc([N+](=O)[O-])cc2)c1
133	CCC1CC(=O)N(Cc2ccc(NC(C)=O)cc2)N=C1c1ccc(OC)c(OC)c1 (stereo unspecified)
